# Data published in the NIST ThermoML archive (doi:10.1016/j.jct.2015.09.010).
# ± gives the expanded uncertainty stated by the source.
# Details: 298.15 K; 101.33 kPa; Liquid; Pycnometric method
row,mass density [kg/m3],SMILES
1,777.1 ± 4.8,CC#N [acetonitrile]
2,806.1 ± 4.8,CCCCO [butan-1-ol]
3,785.3 ± 4.8,CCO [ethanol]
4,786.6 ± 4.8,CO [methanol]
5,799.7 ± 4.8,CCCO [propan-1-ol]
6,781.1 ± 4.8,CC(C)O [propan-2-ol]
